The values that follow come from ChEMBL document CHEMBL3259724, “Design, syntheses, and characterization of piperazine based chemokine receptor CCR5 antagonists as anti prostate cancer agents” (Bioorg Med Chem Lett, 2014).

Some results are limits rather than exact numbers.

For orientation: IC50 means the point on the concentration scale where inhibition reaches its midpoint.

One series concerns PC-3. Description: Antiproliferative activity against human PC3 cells after 72 hrs by WST-1 assay. It counts as functional, cell-based. Conditions: PC-3, 72 h.
Series [1] can be described thus: Antiproliferative activity against human M12 cells after 72 hrs by WST-1 assay. The format is functional, cell-based. Conditions: M12, 72 h. A general note: Formazan colour is commonly taken as a measure of viable cells.
Series [2] is described as follows: Cytotoxicity against mouse NIH/3T3 cells after 48 hrs by neutral red uptake assay. The format is cell-based, NIH3T3. As to conditions: read-out: TC50.
Series [3] addresses C-C chemokine receptor type 5 (Homo sapiens, UniProt P51681). Description: Antagonist activity at CCR5 (unknown origin) expressed in human MOLT4 cells assessed as inhibition of RANTES-stimulated calcium mobilization treated for 15 mins prior to RANTES addition by spectrophotometric analysis. The format is functional, cell-based, MOLT-4.

C-C chemokine receptor type 5, sequence (P51681 whole entry): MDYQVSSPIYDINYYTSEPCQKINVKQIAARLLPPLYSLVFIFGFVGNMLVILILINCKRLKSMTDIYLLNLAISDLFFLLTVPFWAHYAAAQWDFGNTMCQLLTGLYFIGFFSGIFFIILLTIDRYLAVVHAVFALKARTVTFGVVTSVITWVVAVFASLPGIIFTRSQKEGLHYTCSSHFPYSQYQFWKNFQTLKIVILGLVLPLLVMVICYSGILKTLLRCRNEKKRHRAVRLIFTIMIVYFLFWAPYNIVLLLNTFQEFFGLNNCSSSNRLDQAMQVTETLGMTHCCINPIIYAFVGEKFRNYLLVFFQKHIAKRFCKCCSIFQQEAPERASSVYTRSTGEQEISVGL

For the molecule `CCN(CC)c1ccc(CN2CCN(c3ccc(OC(C)C)c(NC(=O)c4cnccn4)c3)CC2)cc1`, the figures for the IC50 (with PC-3; in series [1]) were 6.5 µM and 11.4 µM, respectively. For the same molecule, the CC50 at 48 h in series [2] was found to be 31.9 µM.

In the case of `CC(C)Oc1ccc(N2CCN(Cc3ccc([N+](=O)[O-])cc3)CC2)cc1NC(=O)c1cnccn1`, the IC50 in the series with PC-3 was 49.1 µM; in series [1], 78.7 µM. In series [2], the CC50 at 48 h worked out at 29.3 µM.

With `CC(C)Oc1ccc(N2CCN(Cc3ccccc3)CC2)cc1NC(=O)c1cnccn1`, the IC50 was found to be 67 µM with PC-3 and 29.9 µM in series [1]. Also, the CC50 at 48 h in series [2] turned out to be 46.6 µM.

`CC(C)Oc1ccc(N2CCN(Cc3ccccc3[N+](=O)[O-])CC2)cc1NC(=O)c1cnccn1`: the IC50 amounted to 16.8 µM in series [3], 62.9 µM with PC-3 and 183 µM in series [1]. The CC50 at 48 h in series [2] was > 50 µM.

Regarding `CC(C)Oc1ccc(N2CCN(Cc3ccc(Cl)cc3)CC2)cc1NC(=O)c1cnccn1`, the IC50 amounted to 56.1 µM with PC-3 and 26.3 µM in series [1]. Further, in series [2], the CC50 at 48 h turned out to be 1.6 µM.

`CC(C)Oc1ccc(N2CCN(Cc3ccc(Br)cc3)CC2)cc1NC(=O)c1cnccn1`: the IC50 in the series on PC-3 was 31.5 µM; in series [1], 48.8 µM. Further, in series [2], the CC50 at 48 h was > 50 µM.

As for `COC(=O)c1ccc(CN2CCN(c3ccc(OC(C)C)c(NC(=O)c4cnccn4)c3)CC2)cc1`, the IC50 in the series on PC-3 is 91.5 µM; in series [1], 73.7 µM.

Consider `CC(C)Oc1ccc(N2CCN(Cc3ccc(C(=O)O)cc3)CC2)cc1NC(=O)c1cnccn1`, for which the IC50 in the series on PC-3 worked out at 74 µM; in series [1], 129 µM.

`CC(C)Oc1ccc(N2CCN(Cc3ccc(S(C)(=O)=O)cc3)CC2)cc1NC(=O)c1cnccn1`: the figures for the IC50 (in the series with PC-3; in series [1]) were > 100 µM and 141 µM, respectively.

Take `Cc1ccc(CN2CCN(c3ccc(OC(C)C)c(NC(=O)c4cnccn4)c3)CC2)cc1`: the values for the IC50 (with PC-3; in series [1]) were 19.7 µM and 15.8 µM, respectively.

In the case of `CC(C)Oc1ccc(N2CCN(Cc3ccc(N)cc3)CC2)cc1NC(=O)c1cnccn1`, the IC50 with PC-3 was determined as 20.1 µM; in series [1], 19.7 µM. Further, in series [2], the CC50 at 48 h was 10.7 µM.

`CSc1ccc(CN2CCN(c3ccc(OC(C)C)c(NC(=O)c4cnccn4)c3)CC2)cc1`: the figures for the IC50 (in the series with PC-3; in series [1]) were 78 µM and > 100 µM, respectively.

With `CC(=O)Nc1ccc(CN2CCN(c3ccc(OC(C)C)c(NC(=O)c4cnccn4)c3)CC2)cc1`, the values for the IC50 (with PC-3; in series [1]) were 24.3 µM and 39 µM, respectively. In addition, the CC50 at 48 h in series [2] stood at 7.8 µM.

For the molecule `CC(C)Oc1ccc(N2CCN(Cc3ccc(N(C)C)cc3)CC2)cc1NC(=O)c1cnccn1`, the IC50 in the series on PC-3 stood at 71.2 µM; in series [1], 65.9 µM. Also, the CC50 at 48 h in series [2] is > 50 µM.

With `Cc1ccc(-c2ccc3c(c2)C=C(C(=O)Nc2ccc(C[N+](C)(C)C4CCOCC4)cc2)CCC3)cc1`, the IC50 in the series on PC-3 was determined as 37.9 µM; in series [1] it was 20.4 µM.
